Assay results taken from ChEMBL document CHEMBL2062419, “Synthesis and antiviral activities of hexadecyloxypropyl prodrugs of acyclic nucleoside phosphonates containing guanine or hypoxanthine and a (S)-HPMP or PEE acyclic moiety” (Eur J Med Chem, 2012).
The source made the active and inactive calls. The rule behind the calls is not given here.

How the values were obtained:
[1] = system: Human immunodeficiency virus 1; experiment: Antiviral activity against HIV1 3B infected in human CEM cells assessed as reduction in virus-induced CEM giant cell formation incubated for 4 days at 37 degC by microscopy; assay type: functional, organism-based; settings: CCRF-CEM
[2] = system: Vesicular stomatitis virus; experiment: Antiviral activity against VSV by viral CPE assay; assay type: functional, organism-based
[3] = system: Human immunodeficiency virus 2; experiment: Antiviral activity against HIV2 ROD infected in human CEM cells assessed as reduction in virus-induced CEM giant cell formation incubated for 4 days at 37 degC by microscopy; assay type: functional, organism-based; settings: ISOLATE ROD, CCRF-CEM
[4] = system: Human alphaherpesvirus 1; experiment: Antiviral activity against thymidine kinase negative and ACV resistant HSV1 KOS infected in HEL cells by viral CPE assay; assay type: functional, organism-based; settings: Human alphaherpesvirus 1, KOS
[5] = system: Human betaherpesvirus 5; experiment: Antiviral activity against HCMV Davis infected in HEL cells by viral CPE assay; assay type: functional, organism-based; settings: Human betaherpesvirus 5, Davis
[6] = system: Coxsackievirus B4; experiment: Antiviral activity against Human coxsackievirus B4 by viral CPE assay; assay type: functional, organism-based
[7] = system: Human alphaherpesvirus 2; experiment: Antiviral activity against HSV2 G infected in HEL cells by viral CPE assay; assay type: functional, organism-based; settings: Human alphaherpesvirus 2, strain G
[8] = Cytotoxicity against HEL cells assessed as effect on cell morphology incubated for 3 days by microscopy; assay type: cell-based; settings: human
[9] = system: Mammalian orthoreovirus 1; experiment: Antiviral activity against Reovirus 1 by viral CPE assay; assay type: functional, organism-based
[10] = system: Human respirovirus 3; experiment: Antiviral activity against Human parainfluenza virus 3 by viral CPE assay; assay type: functional, organism-based
[11] = system: Felid alphaherpesvirus 1; experiment: Antiviral activity against Feline herpesvirus infected in CRFK cells by viral CPE assay; assay type: functional, organism-based; settings: Felid alphaherpesvirus 1, CRFK
[12] = system: Punta Toro virus; experiment: Antiviral activity against Punta Toro virus by viral CPE assay; assay type: functional, organism-based
[13] = system: Vaccinia virus; experiment: Antiviral activity against Vaccinia virus Lederie infected in HEL cells by viral CPE assay; assay type: functional, organism-based; settings: Orthopoxvirus vaccinia
[14] = system: Respiratory syncytial virus; experiment: Antiviral activity against Respiratory syncytial virus Long by viral CPE assay; assay type: functional, organism-based
[15] = system: Human betaherpesvirus 5; experiment: Antiviral activity against HCMV AD169 infected in HEL cells by viral CPE assay; assay type: functional, organism-based; settings: Human betaherpesvirus 5, AD169, HEL
[16] = system: Human alphaherpesvirus 3; experiment: Antiviral activity against thymidine kinase positive VZV OKa infected in HEL cells by plaque formation assay; assay type: functional, cell-based, Human herpesvirus 3 strain Oka vaccine; settings: Human alphaherpesvirus 3, OKa
[17] = system: HEL; experiment: Cytotoxicity against HEL cells assessed as effect on cell growth incubated for 3 days by Coulter counter assay; assay type: cell-based; settings: human, 72 h
[18] = system: Human alphaherpesvirus 1; experiment: Antiviral activity against HSV1 KOS infected in HEL cells by viral CPE assay; assay type: functional, organism-based; settings: Human alphaherpesvirus 1, KOS
[19] = system: Human alphaherpesvirus 3; experiment: Antiviral activity against thymidine kinase negative VZV 07/01 infected in HEL cells by plaque formation assay; assay type: functional, organism-based; settings: Human alphaherpesvirus 3, 07/01, HEL
[20] = system: Sindbis virus; experiment: Antiviral activity against Sindbis virus by viral CPE assay; assay type: functional, organism-based
[21] = Selectivity index, ratio of cytotoxic CC50 for HEL cells to EC50 for HSV2 G
[22] = Selectivity index, ratio of cytotoxic CC50 for HEL cells to EC50 for ACV resistant HSV1 KOS
[23] = Selectivity index, ratio of cytotoxic CC50 for HEL cells to EC50 for HCMV Davis
[24] = Selectivity index, ratio of cytotoxic CC50 for HEL cells to EC50 for HSV1 KOS
[25] = Selectivity index, ratio of cytotoxic CC50 for HEL cells to EC50 for VZV 07/01
[26] = Selectivity index, ratio of cytotoxic CC50 for HEL cells to EC50 for VZV Oka
[27] = Selectivity index, ratio of cytotoxic CC50 for HEL cells to EC50 for VZV YS
[28] = system: Human alphaherpesvirus 3; experiment: Antiviral activity against thymidine kinase positive VZV YS infected in HEL cells by plaque formation assay; assay type: functional, organism-based; settings: Human alphaherpesvirus 3, YS
[29] = Selectivity index, ratio of cytotoxic CC50 for HEL cells to EC50 for Vaccinia virus Lederie; assay type: toxicity, cell-based; settings: human, read-out: Ratio CC50/EC50
[30] = Selectivity index, ratio of cytotoxic CC50 for HEL cells to EC50 for HCMV AD169
[31] = system: Human alphaherpesvirus 3; experiment: Antiviral activity against thymidine kinase negative VZV YS/R infected in HEL cells by plaque formation assay; assay type: functional, organism-based; settings: Human alphaherpesvirus 3, YS/R
[32] = Selectivity index, ratio of cytotoxic CC50 for HEL cells to EC50 for Feline herpesvirus; assay type: toxicity, cell-based; settings: human, read-out: Ratio CC50/EC50

Compound	Activity [1]	Activity [2]	Activity [3]	EC50 [4] [µM]	EC50 [5] [µM]	Activity [6]	EC50 [7] [µM]	MCC at 72 h [8] [µM]	Activity [9]	Activity [10]	EC50 [11] [µM]	Activity [12]	EC50 [13] [µM]	Activity [14]	EC50 [15] [µM]	EC50 [16] [µM]	CC50 [17] [µM]	EC50 [18] [µM]	EC50 [19] [µM]	Activity [20]	other results
CCCCCCCCCCCCCCCCOCCCOP(=O)(CCOCCn1cnc2c(=O)[nH]c(N)nc21)OCCCOCCCCCCCCCCCCCCCC	inactive	inactive	inactive	> 115	> 23	inactive	> 115	≥ 23	inactive	inactive	> 115	inactive	> 115	inactive	> 23	> 23	> 115	> 115	> 23	inactive	
CCCCCCCCCCCCCCCCOCCCOP(=O)(CCOCCn1cnc2c(=O)[nH]cnc21)OCCCOCCCCCCCCCCCCCCCC	inactive	inactive	inactive	> 117	> 23.4	inactive	> 117	≥ 117	inactive	inactive	> 23.4	inactive	> 117	inactive	> 23.4	> 23.4	117	> 117	> 23.4	inactive	
CCCCCCCCCCCCCCCCOCCCOP(=O)(O)CCOCCn1cnc2c(=O)[nH]c(N)nc21	inactive	inactive	inactive	2.8	0.06	inactive	1.9	≥ 34	inactive	inactive	> 171	inactive	≥ 34	inactive	0.13	0.14	26	1.37	0.3	inactive	Ratio CC50/EC50 [21]: 14; Ratio CC50/EC50 [22]: 9; Ratio CC50/EC50 [23]: 433; Ratio CC50/EC50 [24]: 19; Ratio CC50/EC50 [25]: 87; Ratio CC50/EC50 [26]: 186; Ratio CC50/EC50 [27]: 137; EC50 [28]: 0.19 µM; selectivity ratio [29]: < 1; Ratio CC50/EC50 [30]: 200
CCCCCCCCCCCCCCCCOCCCOP(=O)(CO[C@H](CO)Cn1cnc2c(=O)[nH]cnc21)OCCCOCCCCCCCCCCCCCCCC	inactive	inactive	inactive	> 115	> 23	inactive	> 115	≥ 23	inactive	inactive	> 115	inactive	> 115	inactive	> 23	> 23	> 115	> 115	> 4.6	inactive	
O=c1[nH]c(=O)n([C@H]2C[C@H](O)[C@@H](CO)O2)cc1/C=C/Br [BRIVUDINE]				≥ 183			105	> 300									347	0.038	53		EC50 [31]: ≥ 120 µM; EC50 [28]: 0.006 µM
Nc1ccn(C[C@@H](CO)OCP(=O)(O)O)c(=O)n1 [CIDOFOVIR]				1.75				> 317					14		1.37		241	0.93			
CCCCCCCCCCCCCCCCOCCCOP(=O)(O)CO[C@H](CO)Cn1cnc2c(=O)[nH]cnc21	inactive	inactive	inactive	> 6.8	15.2	inactive	> 6.8	≥ 34	inactive	inactive	> 34	inactive	> 6.8	inactive	> 34	> 6.8	66	> 6.8		inactive	
Nc1nc(O)c2ncn(COC(CO)CO)c2n1 [GANCICLOVIR]							0.029	> 394			1.15		≥ 93				231				
CCCCCCCCCCCCCCCCOCCCOP1(=O)CO[C@@H](Cn2cnc3c(=O)[nH]cnc32)CO1 (mixture of isomers)	inactive	inactive	inactive	> 7	> 7	inactive	> 7	≥ 7	inactive	inactive	> 176	inactive	> 7	inactive	> 7	> 1.4	> 176	> 7	> 1.4	inactive	
CCCCCCCCCCCCCCCCOCCCOP(=O)(O)CO[C@H](CO)Cn1cnc2c(=O)[nH]c(N)nc21	inactive	inactive	inactive	0.012	0.0022	inactive	0.007	≥ 1.3	inactive	inactive	> 1.33	inactive	0.011	inactive	0.0066	0.002	0.72	0.008	0.0017	inactive	Ratio CC50/EC50 [21]: 103; Ratio CC50/EC50 [22]: 60; Ratio CC50/EC50 [23]: 327; Ratio CC50/EC50 [24]: 90; Ratio CC50/EC50 [25]: 423; Ratio CC50/EC50 [26]: 360; Ratio CC50/EC50 [27]: 288; EC50 [28]: 0.0025 µM; selectivity ratio [29]: 65; Ratio CC50/EC50 [30]: 109
Nc1nc2c(ncn2C[C@@H](CO)OCP(=O)(O)O)c(=O)[nH]1				0.78	1.5		0.78	> 100			0.72		1.1		1.8	0.56	39	0.78	0.21		Ratio CC50/EC50 [21]: 50; Ratio CC50/EC50 [22]: 50; Ratio CC50/EC50 [23]: 26; Ratio CC50/EC50 [24]: 50; Ratio CC50/EC50 [25]: 186; Ratio CC50/EC50 [26]: 70; selectivity ratio [29]: 35; Ratio CC50/EC50 [30]: 22; selectivity ratio [32]: 157
CCCCCCCCCCCCCCCCOCCCOP(=O)(O)CCOCCn1cnc2c(=O)[nH]cnc21	inactive	inactive	inactive	> 35	> 35	inactive	> 35	175	inactive	inactive	> 35	inactive	> 35	inactive	> 35	> 35	78	> 35	> 35	inactive	
Nc1nc2c(ncn2COCCO)c(=O)[nH]1 [ACYCLOVIR]				≥ 212			0.38	> 444					> 1000				918	0.53			
